Among the test systems are OVCAR-4 ovarian; RPMI-8226 leukemia; EKVX NSCLC; SF-295 CNS; CCRF-CEM leukemia; OVCAR-5 ovarian; SR leukemia; UO-31 renal; M14 melanoma.
Experiment in all cases: NCI tumour cell line growth inhibition, 48 h

Values joined by “and” are separate entries in the source; they are usually repeats but may differ in a detail not shown here. Equal values may be shown once.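 These data come from cells grown in 96-well plates and exposed to compound for 48 hours at five concentrations. GI50 marks 50% less growth. At the TGI there is no net growth.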

The source of these data is PubChem BioAssay (NCI).

`CC(=O)c1c[nH]c2ccc(-c3ccnc(Nc4ccc(NC(=O)c5cccc(F)c5)c(CN5CCOCC5)c4)n3)cc12`: the GI50 is 0.307 µM in the experiment on OVCAR-4 ovarian; 0.325 µM in the experiment with RPMI-8226 leukemia; 0.239 µM in the experiment with EKVX NSCLC; 0.249 µM with SF-295 CNS; 0.134 µM in the experiment on CCRF-CEM leukemia; 0.129 µM in the experiment with OVCAR-5 ovarian. The values for the GI50 with SR leukemia, in the experiment on UO-31 renal and with M14 melanoma were 0.0363 µM, 0.0961 µM and 0.188 µM, respectively. Also, the TGI is 3.07 µM in the experiment with OVCAR-4 ovarian; 1.35 µM with RPMI-8226 leukemia; 1.52 µM in the experiment with EKVX NSCLC; 1.75 µM with SF-295 CNS; greater than 100 µM in the experiment on CCRF-CEM leukemia; 1.06 µM in the experiment on OVCAR-5 ovarian. Moreover, the TGI in the experiment on SR leukemia is greater than 100 µM; in the experiment with UO-31 renal, 1.75 µM; in the experiment on M14 melanoma it was 0.794 µM.
Regarding `NS(=O)(=O)OC[C@H]1O[C@@H](n2cnc3c(N[C@H]4CCc5ccccc54)ncnc32)[C@H](O)[C@@H]1O`, the GI50 in the experiment with OVCAR-4 ovarian is 0.243 µM; with RPMI-8226 leukemia it was 3.36 µM; with EKVX NSCLC, 0.349 µM; in the experiment with SF-295 CNS, 0.387 µM; in the experiment with CCRF-CEM leukemia it was 0.0419 µM; in the experiment with OVCAR-5 ovarian, 0.305 µM. The GI50 in the experiment on SR leukemia was 0.0368 µM; with UO-31 renal it was 1.41 µM; with M14 melanoma, 0.226 µM. Also, the TGI in the experiment with OVCAR-4 ovarian is 0.626 µM; with RPMI-8226 leukemia, 28.1 µM; in the experiment with EKVX NSCLC, 9.07 µM; in the experiment on SF-295 CNS, 1.94 µM; in the experiment on CCRF-CEM leukemia, greater than 100 µM; in the experiment with OVCAR-5 ovarian, 2.24 µM. For the same compound, the TGI with SR leukemia is greater than 52.6 µM; with UO-31 renal, 2.88 µM; in the experiment on M14 melanoma it was 2.35 µM.
As to `CN1CCN(c2nc(NCCNc3ccnc4cc(Cl)ccc34)c3ccccc3n2)CC1`, the GI50 with OVCAR-4 ovarian was 2.15 µM; in the experiment with RPMI-8226 leukemia, 1.71 µM; in the experiment on EKVX NSCLC, 3.86 µM; in the experiment with SF-295 CNS, 1.79 µM; with CCRF-CEM leukemia, 0.527 µM; in the experiment with OVCAR-5 ovarian, 3.35 µM. The GI50 in the experiment with SR leukemia was 1.3 µM; in the experiment with UO-31 renal it was 1.55 µM; with M14 melanoma it was 1.83 µM. In addition, the TGI with OVCAR-4 ovarian worked out at 6.26 µM; in the experiment with RPMI-8226 leukemia, 4.26 µM; in the experiment on EKVX NSCLC it was 17.3 µM; with SF-295 CNS, 3.45 µM; with CCRF-CEM leukemia it was 4.84 µM; in the experiment on OVCAR-5 ovarian, 13.3 µM. Moreover, the TGI with SR leukemia came to 3.67 µM; with UO-31 renal, 3.53 µM; in the experiment on M14 melanoma, 3.59 µM.
As for `COc1cc(Oc2cnc3cc(N)cc(N)c3n2)cc(OC)c1OC`, the GI50 is 37.3 µM in the experiment on OVCAR-4 ovarian; 21.9 µM in the experiment on RPMI-8226 leukemia; 61.4 µM with EKVX NSCLC; 74.4 µM in the experiment with SF-295 CNS; 50.7 µM with CCRF-CEM leukemia; 23 µM with OVCAR-5 ovarian. Besides, the GI50 in the experiment on SR leukemia is 14 µM; with UO-31 renal, 35 µM; with M14 melanoma, 22.7 µM. In addition, the TGI in the experiment with OVCAR-4 ovarian was greater than 100 µM; in the experiment on RPMI-8226 leukemia it was 45 µM; in the experiment on EKVX NSCLC, greater than 100 µM; with SF-295 CNS, greater than 100 µM; in the experiment with CCRF-CEM leukemia it was greater than 100 µM; in the experiment with OVCAR-5 ovarian, 62.6 µM. Also, the TGI in the experiment with SR leukemia was 37.2 µM; in the experiment on UO-31 renal, greater than 100 µM; with M14 melanoma, 76.2 µM.
Regarding `O=C(O)/C=C/C(=O)Nc1cccc2c1-c1ccccc1C2=O`, the TGI was greater than 100 µM with OVCAR-4 ovarian; 62.6 µM in the experiment with RPMI-8226 leukemia; greater than 100 µM in the experiment on EKVX NSCLC; greater than 33.8 µM in the experiment with SF-295 CNS; greater than 28.3 µM in the experiment with CCRF-CEM leukemia; greater than 100 µM with OVCAR-5 ovarian. The TGI was greater than 57.8 µM with SR leukemia, greater than 100 µM in the experiment with UO-31 renal and greater than 100 µM with M14 melanoma.
In the case of `O=C(NCCc1ccccc1)C(c1csc2ccccc12)N(C(=O)CCl)c1ccc(-c2cnco2)cc1` (configuration not stated), the GI50 in the experiment on OVCAR-4 ovarian is 1.7 µM; in the experiment on RPMI-8226 leukemia, 0.171 µM; with EKVX NSCLC it was 0.543 µM; in the experiment with SF-295 CNS it was 0.156 µM; with CCRF-CEM leukemia, 0.0229 µM; in the experiment with OVCAR-5 ovarian it was 0.682 µM. Moreover, the GI50 was 0.0268 µM with SR leukemia, 0.0173 µM with UO-31 renal and 1.38 µM in the experiment with M14 melanoma. For the same compound, the TGI in the experiment on OVCAR-4 ovarian stood at 5.14 µM; in the experiment on RPMI-8226 leukemia, 0.474 µM; with EKVX NSCLC, 2.3 µM; with SF-295 CNS it was 0.302 µM; in the experiment with CCRF-CEM leukemia, 0.0594 µM; with OVCAR-5 ovarian, 2.07 µM. Also, the TGI was found to be 0.107 µM with SR leukemia, 0.0354 µM in the experiment on UO-31 renal and 2.83 µM with M14 melanoma.
Take `Cc1cc(C)c2nc(Nc3nc(C)c(C)c(=O)[nH]3)nc(C)c2c1`: the GI50 with OVCAR-4 ovarian is 3.27 µM; in the experiment on RPMI-8226 leukemia, 2.13 µM; in the experiment with EKVX NSCLC, 2.58 µM; in the experiment on SF-295 CNS, 2.29 µM; with CCRF-CEM leukemia, 2.72 µM; in the experiment with OVCAR-5 ovarian, 3.01 µM. Moreover, the GI50 with SR leukemia is 2.18 µM; in the experiment on UO-31 renal it was 1.82 µM; in the experiment on M14 melanoma it was 2.58 µM. The TGI in the experiment with OVCAR-4 ovarian was 15.6 µM; in the experiment on RPMI-8226 leukemia, 6.21 µM; in the experiment on EKVX NSCLC, 10.9 µM; with SF-295 CNS, 6.44 µM; in the experiment with CCRF-CEM leukemia, 8.61 µM; with OVCAR-5 ovarian it was 18.5 µM. In addition, the TGI is 7.43 µM in the experiment on SR leukemia, 5.86 µM with UO-31 renal and 8.79 µM in the experiment with M14 melanoma.
For the compound `O=c1cc(N2CCOCC2)oc2c(-c3ccccc3)cccc12`, the GI50 with OVCAR-4 ovarian was 3.5 µM; in the experiment with RPMI-8226 leukemia, 5.1 µM; in the experiment with EKVX NSCLC it was 5.22 µM; with SF-295 CNS, 2.61 µM; in the experiment with CCRF-CEM leukemia, 8.59 µM; with OVCAR-5 ovarian, 5.17 µM. For the same compound, the GI50 with UO-31 renal is 1.39 µM; with M14 melanoma it was 5.38 µM. Also, the TGI was > 61.9 µM and 75.5 µM in the experiment with OVCAR-4 ovarian; > 100 µM and 18.3 µM in the experiment with RPMI-8226 leukemia; > 71 µM and 23.2 µM with EKVX NSCLC; 27.8 µM and 44.7 µM with SF-295 CNS; greater than 100 µM with CCRF-CEM leukemia; > 100 µM and 63.8 µM in the experiment on OVCAR-5 ovarian. The TGI with SR leukemia is > 60 µM and 46.6 µM; in the experiment with M14 melanoma, > 38.5 µM and 56 µM.
For the compound `O=C(O)CSc1ccn(Cc2ccccc2)c1`, the TGI with OVCAR-4 ovarian, in the experiment on RPMI-8226 leukemia, with EKVX NSCLC, in the experiment on SF-295 CNS, in the experiment on CCRF-CEM leukemia and in the experiment on OVCAR-5 ovarian was greater than 100 µM throughout. Besides, the TGI in the experiment with SR leukemia, in the experiment on UO-31 renal and in the experiment with M14 melanoma was greater than 100 µM in each case.
With `CCSc1sc(-c2ccc(C)cc2)nc1[P+](c1ccccc1)(c1ccccc1)c1ccccc1`, the GI50 in the experiment on OVCAR-4 ovarian is 0.275 µM; in the experiment with RPMI-8226 leukemia, 0.13 µM; with EKVX NSCLC it was 0.244 µM; in the experiment on SF-295 CNS, 0.235 µM; in the experiment with CCRF-CEM leukemia, 0.377 µM; in the experiment with OVCAR-5 ovarian, 0.376 µM. Also, the results for the GI50 in the experiment with SR leukemia, in the experiment with UO-31 renal and in the experiment on M14 melanoma were 0.354 µM, 0.254 µM and 0.342 µM, respectively. In addition, the TGI in the experiment with OVCAR-4 ovarian was found to be 1.05 µM; in the experiment with RPMI-8226 leukemia, 0.477 µM; in the experiment with EKVX NSCLC, 0.904 µM; in the experiment with SF-295 CNS, 0.736 µM; in the experiment on CCRF-CEM leukemia, 2.14 µM; in the experiment on OVCAR-5 ovarian, 1.56 µM. The TGI in the experiment on SR leukemia was found to be 3.47 µM; in the experiment with UO-31 renal, 0.866 µM; in the experiment on M14 melanoma it was 1.51 µM.
Take `CC([C@H]1CCC2C3CCC4C(=O)C(NC=O)=CC[C@]4(C)C3CC[C@@]21C)N(C)C` (some centres not stated): the GI50 in the experiment on OVCAR-4 ovarian was 5.12 µM; with RPMI-8226 leukemia, 2.75 µM; in the experiment on EKVX NSCLC, 3.01 µM; in the experiment with SF-295 CNS, 2.11 µM; in the experiment on CCRF-CEM leukemia it was 3.24 µM; with OVCAR-5 ovarian, 8.45 µM. Also, the figures for the GI50 with SR leukemia, with UO-31 renal and in the experiment with M14 melanoma were 1.03 µM, 1.98 µM and 2.08 µM, respectively. The TGI came to 26.6 µM in the experiment with OVCAR-4 ovarian; 18 µM in the experiment on RPMI-8226 leukemia; 50.7 µM in the experiment with EKVX NSCLC; 5.67 µM with SF-295 CNS; 18.7 µM in the experiment with CCRF-CEM leukemia; 24.9 µM in the experiment with OVCAR-5 ovarian. Also, the TGI came out at 6.5 µM in the experiment with SR leukemia, 7.4 µM with UO-31 renal and 4.39 µM with M14 melanoma.
`COc1cccc(-n2cnc3c(N/N=C/c4ccncc4)ncnc32)c1`: the GI50 is 11.6 µM in the experiment on OVCAR-4 ovarian; greater than 25 µM in the experiment on RPMI-8226 leukemia; greater than 25 µM with EKVX NSCLC; greater than 25 µM with SF-295 CNS; greater than 25 µM with CCRF-CEM leukemia; greater than 25 µM in the experiment on OVCAR-5 ovarian. Further, the GI50 in the experiment with SR leukemia was 12.3 µM; in the experiment on UO-31 renal, 8.26 µM; with M14 melanoma, 10.3 µM. The TGI with OVCAR-4 ovarian, with RPMI-8226 leukemia, in the experiment on EKVX NSCLC, with SF-295 CNS, in the experiment with CCRF-CEM leukemia and in the experiment with OVCAR-5 ovarian was greater than 25 µM throughout. Moreover, the TGI in the experiment with SR leukemia, in the experiment with UO-31 renal and in the experiment on M14 melanoma was greater than 25 µM throughout.
Take `COc1ccc(/C(C#N)=C/c2nc3c(N4CCOCC4)nc(Cl)nc3n2C)cc1OC`: the GI50 in the experiment on OVCAR-4 ovarian was less than 0.0105 µM; with RPMI-8226 leukemia, less than 0.01 µM; with SF-295 CNS it was less than 0.01 µM; with CCRF-CEM leukemia it was less than 0.01 µM; in the experiment with OVCAR-5 ovarian, less than 0.0171 µM; with SR leukemia, less than 0.01 µM. Moreover, the GI50 in the experiment on UO-31 renal and with M14 melanoma was less than 0.01 µM in each case. The TGI with OVCAR-4 ovarian was 1.93 µM; with RPMI-8226 leukemia, 0.315 µM; in the experiment with EKVX NSCLC, 2.76 µM; in the experiment on SF-295 CNS, 2.17 µM; in the experiment on CCRF-CEM leukemia it was 0.146 µM; with OVCAR-5 ovarian it was 2.32 µM. The values for the TGI in the experiment on SR leukemia and in the experiment on UO-31 renal were 3.68 µM and 1.65 µM, respectively.
